The results in this text go back to patent publication US20260159512A1, “BCAT2 INHIBITORS” (AGIOS PHARMACEUTICALS, INC., priority 2021, published 2026).

Conditions in all cases: average where tested multiple times
The target of one experiment is T1, hBCAT1 (Homo sapiens, UniProt P54687).
T1 sequence (P54687 1-386): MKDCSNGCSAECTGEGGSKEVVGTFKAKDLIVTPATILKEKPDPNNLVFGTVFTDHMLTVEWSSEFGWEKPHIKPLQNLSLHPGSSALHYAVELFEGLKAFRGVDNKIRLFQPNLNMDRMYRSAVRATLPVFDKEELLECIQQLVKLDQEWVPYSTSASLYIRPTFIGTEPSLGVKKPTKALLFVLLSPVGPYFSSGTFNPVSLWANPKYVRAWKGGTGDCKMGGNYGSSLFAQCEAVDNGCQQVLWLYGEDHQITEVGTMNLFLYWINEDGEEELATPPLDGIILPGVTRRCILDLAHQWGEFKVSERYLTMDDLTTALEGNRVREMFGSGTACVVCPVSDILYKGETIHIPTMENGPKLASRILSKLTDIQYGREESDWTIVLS
As to the kind of experiment: BCAT1 in vitro enzyme inhibition assay (resazurin/diaphorase-coupled fluorescence). The experiment is classed as biochemical. The essentials: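 Human BCAT1 activity read by resazurin/diaphorase-coupled fluorescence. Compounds added from 50× DMSO stocks at 1:50, giving 10-point 3-fold titrations from 100 μM top final concentration. Run in technical duplicate; repeat tests averaged.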
(Resazurin is reduced to fluorescent resorufin, in cell work by metabolically active cells.)

Experiment [1] has as its target T2, BCAT2 (Homo sapiens, UniProt O15382).
T2 sequence (O15382 28-392): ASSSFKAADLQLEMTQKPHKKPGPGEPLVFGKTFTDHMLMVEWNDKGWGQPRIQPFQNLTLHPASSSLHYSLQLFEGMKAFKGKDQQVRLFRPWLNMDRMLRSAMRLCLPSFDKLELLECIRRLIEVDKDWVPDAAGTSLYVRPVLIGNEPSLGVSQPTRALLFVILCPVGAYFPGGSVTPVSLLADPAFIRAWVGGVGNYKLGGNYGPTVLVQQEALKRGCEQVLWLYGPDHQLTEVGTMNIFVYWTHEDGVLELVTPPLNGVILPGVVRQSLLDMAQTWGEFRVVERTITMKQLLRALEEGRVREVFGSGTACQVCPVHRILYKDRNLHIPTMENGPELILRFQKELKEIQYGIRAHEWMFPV
Description: BCAT2 in vitro enzyme inhibition assay (resazurin/diaphorase-coupled fluorescence). The experiment is classed as biochemical. The essentials:
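Coupled fluorescence readout: glutamate formed from L-leucine/α-ketoglutarate transamination drives GDH/NAD/diaphorase reduction of resazurin (Ex 540/Em 590). Human BCAT2 was first exposed 1 h at room temperature to compound, top final 100 μM in 3-fold, 10-point series; substrate reaction ran 1 h before SDS quench, in technical duplicate with DMSO max and enzyme-free min controls.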

Experiment [2] addresses T2, BCAT2. As to the kind of experiment: BCAT2 in vitro cell inhibition using engineered A549 cells (KMV cell assay, 13C6-KMV by LC-MS/MS). The experiment is classed as cell-based. Set-up: The result was an engineered A549 cell line that expressed endogenous BCAT2; endogenous in cells; host or cells: A549 cells with MUT and BCAT1 knocked out by CRISPR/CAS9; key to BCAT2 Cell Inhibition: A: less than or equal to 0.100 μM; B: greater than 0.100 and less than or equal to 0.500 μM; C: greater than 0.500 and less than or equal to 1.000 μM; d: greater than 1.000 μM; E: no fit.

Bounds are passed on as bounds.

As for `CNC(=O)c1ccc2c(c1)nc(-c1ccccn1)n2C1CC(NC(=O)c2ccc(Br)s2)CN(C(C)=O)C1` (stereo not drawn) [Example 287, 1-(1-acetyl-5-(5-bromothiophene-2-carboxamido)piperidin-3-yl)-N-methyl-2-(pyridin-2-yl)-1H-benzo[d]imidazole-5-carboxamide], the half-inhibitory concentration (IC50) on hBCAT1 is > 5000 nM; against BCAT2 [1] it was 100 to 500 nM. Further, the “BCAT2 Cell Inhibition” value on BCAT2 [2] is recorded as “E”.
In the case of `CNC(=O)c1ccc2c(c1)nc(-c1ccccn1)n2C1CC(NC(=O)c2ccc(Br)s2)CN(C)C1` (stereo not drawn) [Example 288, 1-(5-(5-bromothiophene-2-carboxamido)-1-methylpiperidin-3-yl)-N-methyl-2-(pyridin-2-yl)-1H-benzo[d]imidazole-5-carboxamide], the results for the concentration for half-maximal inhibition (IC50) against hBCAT1 and against BCAT2 [1] were > 5000 nM and 500 to 1000 nM, respectively. Moreover, the “BCAT2 Cell Inhibition” value on BCAT2 [2] was “E”.
`CNC(=O)c1cc2nc(-c3ccccc3F)n(C3CC(NC(=O)c4ccc(Br)s4)CN(C)C3)c2cc1OC` (stereo not drawn) [Example 291, 1-(5-(5-bromothiophene-2-carboxamido)-1-methylpiperidin-3-yl)-2-(2-fluorophenyl)-6-methoxy-N-methyl-1H-benzo[d]imidazole-5-carboxamide]: the half-maximal inhibitory concentration (IC50) against hBCAT1 was 1000 to 5000 nM; at BCAT2 [1], ≤ 100 nM; at BCAT2 [2], 100 to 500 nM.
`CC(C)(F)Cc1nc2cnc(-c3ccccn3)cc2n1[C@@H]1CCC[C@H](NC(=O)c2ncc(Cl)s2)C1` [Example 302, 5-chloro-N-((1S,3R)-3-(2-(2-fluoro-2-methylpropyl)-6-(pyridin-2-yl)-1H-imidazo[4,5-c]pyridin-1-yl)cyclohexyl)thiazole-2-carboxamide]: the 50% inhibitory concentration (IC50) is 500 to 1000 nM at hBCAT1, ≤ 100 nM against BCAT2 [1] and 100 to 500 nM on BCAT2 [2].
The corresponding values for `CC(C)Cc1nc2cnc(-c3ccccn3)cc2n1[C@@H]1CCC[C@H](NC(=O)c2ncc(Cl)s2)C1` [Example 303, 5-chloro-N-((1S,3R)-3-(2-isobutyl-6-(pyridin-2-yl)-1H-imidazo[4,5-c]pyridin-1-yl)cyclohexyl)thiazole-2-carboxamide] are < 500 nM, ≤ 100 nM and 100 to 500 nM.
For `CC(C)[C@@H](O)c1nc2cnc(-c3ccccn3)cc2n1[C@@H]1CCC[C@H](NC(=O)c2ncc(Cl)s2)C1` [Example 305, 5-chloro-N-((1S,3R)-3-(2-((R)-1-hydroxy-2-methylpropyl)-6-(pyridin-2-yl)-1H-imidazo[4,5-c]pyridin-1-yl)cyclohexyl)thiazole-2-carboxamide], the values for the IC50 at hBCAT1, on BCAT2 [1] and against BCAT2 [2] were < 500 nM, ≤ 100 nM and 100 to 500 nM, respectively.
Taken in the same sequence, the figures for `Cc1coc(-c2cc3c(cn2)nc(CC(C)C)n3[C@@H]2CCC[C@H](NC(=O)c3ncc(Cl)s3)C2)n1` [Example 306, 5-chloro-N-((1S,3R)-3-(2-isobutyl-6-(4-methyloxazol-2-yl)-1H-imidazo[4,5-c]pyridin-1-yl)cyclohexyl)thiazole-2-carboxamide] were 500 to 1000 nM, ≤ 100 nM and 100 to 500 nM.
`CC(C)Cc1nc2cnc(-c3cccc(CO)n3)cc2n1[C@@H]1CCC[C@H](NC(=O)c2ncc(Cl)s2)C1` [Example 311, 5-chloro-N-((1S,3R)-3-(6-(6-(hydroxymethyl)pyridin-2-yl)-2-isobutyl-1H-imidazo[4,5-c]pyridin-1-yl)cyclohexyl)thiazole-2-carboxamide]: the IC50 is 1000 to 5000 nM against hBCAT1, ≤ 100 nM on BCAT2 [1] and 500 to 1000 nM against BCAT2 [2].
The corresponding values for `O=C(N[C@H]1CCC[C@@H](n2c(CC3CC3)nc3cnc(-c4nc[nH]n4)cc32)C1)c1ncc(Cl)s1` [Example 312, 5-chloro-N-((1S,3R)-3-(2-(cyclopropylmethyl)-6-(1H-1,2,4-triazol-3-yl)-1H-imidazo[4,5-c]pyridin-1-yl)cyclohexyl)thiazole-2-carboxamide] are < 500 nM, ≤ 100 nM and ≤ 100 nM.
Regarding `O=C(N[C@H]1CCC[C@@H](n2c(COC(F)(F)F)nc3cnc(-c4nc[nH]n4)cc32)C1)c1ncc(Cl)s1` [Example 313, N-((1S,3R)-3-(6-(1H-1,2,4-triazol-3-yl)-2-((trifluoromethoxy)methyl)-1H-imidazo[4,5-c]pyridin-1-yl)cyclohexyl)-5-chlorothiazole-2-carboxamide], the half-maximal inhibitory concentration (IC50) on hBCAT1 was < 500 nM; on BCAT2 [1], ≤ 100 nM; against BCAT2 [2], ≤ 100 nM.
For `COC(c1nc2cnc(-c3nc[nH]n3)cc2n1[C@@H]1CCC[C@H](NC(=O)c2ncc(Cl)s2)C1)C(C)C` (stereo partly drawn) [Example 314, 5-chloro-N-((1S,3R)-3-(2-(1-methoxy-2-methylpropyl)-6-(1H-1,2,4-triazol-3-yl)-1H-imidazo[4,5-c]pyridin-1-yl)cyclohexyl)thiazole-2-carboxamide], the results for the half-inhibitory concentration (IC50) against hBCAT1, against BCAT2 [1] and against BCAT2 [2] were < 500 nM, ≤ 100 nM and 100 to 500 nM, respectively.
Regarding `O=C(N[C@H]1CCC[C@@H](n2c(COC(F)(F)F)nc3cnc(-n4nccn4)cc32)C1)c1ncc(Cl)s1` [Example 315, N-((1S,3R)-3-(6-(2H-1,2,3-triazol-2-yl)-2-((trifluoromethoxy)methyl)-1H-imidazo[4,5-c]pyridin-1-yl)cyclohexyl)-5-chlorothiazole-2-carboxamide], the IC50 against hBCAT1 was 500 to 1000 nM; at BCAT2 [1], ≤ 100 nM; at BCAT2 [2] it was 100 to 500 nM.
On to `CNc1nccc(-c2cc3c(cn2)nc(CC(C)C)n3[C@@H]2CCC[C@H](NC(=O)c3ncc(Cl)s3)C2)n1` [Example 316, 5-chloro-N-((1S,3R)-3-(2-isobutyl-6-(2-(methylamino)pyrimidin-4-yl)-1H-imidazo[4,5-c]pyridin-1-yl)cyclohexyl)thiazole-2-carboxamide], for which the IC50 against hBCAT1 was 1000 to 5000 nM; against BCAT2 [1], ≤ 100 nM; at BCAT2 [2], > 1000 nM.
In the case of `CC(C)Cc1nc2cnc(-c3nc[nH]n3)cc2n1[C@@H]1CCC[C@H](NC(=O)c2ccc(Cl)s2)C1` [Example 317, 5-chloro-N-((1S,3R)-3-(2-isobutyl-6-(1H-1,2,4-triazol-3-yl)-1H-imidazo[4,5-c]pyridin-1-yl)cyclohexyl)thiophene-2-carboxamide], the half-maximal inhibitory concentration (IC50) is < 500 nM on hBCAT1, ≤ 100 nM against BCAT2 [1] and ≤ 100 nM at BCAT2 [2].
For the molecule `CC(C)Cc1nc2cnc(-c3ccc4ccoc4c3)cc2n1[C@@H]1CCC[C@H](NC(=O)c2ncc(Cl)s2)C1` [Example 319, N-((1S,3R)-3-(6-(benzofuran-6-yl)-2-isobutyl-1H-imidazo[4,5-c]pyridin-1-yl)cyclohexyl)-5-chlorothiazole-2-carboxamide], the half-maximal inhibitory concentration (IC50) was 1000 to 5000 nM against hBCAT1 and 100 to 500 nM against BCAT2 [1]. For the same molecule, the “BCAT2 Cell Inhibition” value at BCAT2 [2] was “E”.
As for `CC(C)Cc1nc2cnc(-c3cc4ccccc4o3)cc2n1[C@@H]1CCC[C@H](NC(=O)c2ncc(Cl)s2)C1` [Example 320, N-((1S,3R)-3-(6-(benzofuran-2-yl)-2-isobutyl-1H-imidazo[4,5-c]pyridin-1-yl)cyclohexyl)-5-chlorothiazole-2-carboxamide], the IC50 was 1000 to 5000 nM on hBCAT1 and 100 to 500 nM against BCAT2 [1]. Moreover, the “BCAT2 Cell Inhibition” value at BCAT2 [2] is recorded as “E”.
Regarding `CC(C)Cc1nc2cnc(-c3ncon3)cc2n1[C@@H]1CCC[C@H](NC(=O)c2ncc(Cl)s2)C1` [Example 321, 5-chloro-N-((1S,3R)-3-(2-isobutyl-6-(1,2,4-oxadiazol-3-yl)-1H-imidazo[4,5-c]pyridin-1-yl)cyclohexyl)thiazole-2-carboxamide], the half-maximal inhibitory concentration (IC50) against hBCAT1 is 500 to 1000 nM; against BCAT2 [1], ≤ 100 nM; against BCAT2 [2], 500 to 1000 nM.
Consider `CC(C)C(F)c1nc2cnc(-c3ccccn3)cc2n1[C@@H]1CCC[C@H](NC(=O)c2ncc(Cl)s2)C1` (stereo partly drawn) [Example 322, 5-chloro-N-((1S,3R)-3-(2-(1-fluoro-2-methylpropyl)-6-(pyridin-2-yl)-1H-imidazo[4,5-c]pyridin-1-yl)cyclohexyl)thiazole-2-carboxamide], for which the values for the half-maximal inhibitory concentration (IC50) against hBCAT1, on BCAT2 [1] and against BCAT2 [2] were 1000 to 5000 nM, ≤ 100 nM and 500 to 1000 nM, respectively.

In general, IC50 refers to the concentration at which inhibition is half-maximal.
